Experimental data from PubChem BioAssay (NCI).
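Compound exposure: 48 hours, 5 concentrations, 96-well plates. TGI: total growth inhibition.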

What was measured:
Assay in all cases: inhibition of tumour cell growth, NCI panel, 48 h
786-0 renal = tested on: 786-0 renal
A498 renal = tested on: A498 renal
A549 NSCLC = tested on: A549 NSCLC
ACHN renal = tested on: ACHN renal
BT-549 breast = tested on: BT-549 breast
CAKI-1 renal = tested on: CAKI-1 renal
CCRF-CEM leukemia = tested on: CCRF-CEM leukemia
COLO 205 colon = tested on: COLO 205 colon
DU-145 prostate = tested on: DU-145 prostate
EKVX NSCLC = tested on: EKVX NSCLC
HCT-116 colon = tested on: HCT-116 colon
HCT-15 colon = tested on: HCT-15 colon
HL-60(TB) leukemia = tested on: HL-60(TB) leukemia
HOP-62 NSCLC = tested on: HOP-62 NSCLC
HOP-92 NSCLC = tested on: HOP-92 NSCLC
HS 578T breast = tested on: HS 578T breast
HT29 colon = tested on: HT29 colon
IGROV1 ovarian = tested on: IGROV1 ovarian
K-562 leukemia = tested on: K-562 leukemia
KM12 colon = tested on: KM12 colon
LOX IMVI melanoma = tested on: LOX IMVI melanoma
M14 melanoma = tested on: M14 melanoma
MALME-3M melanoma = tested on: MALME-3M melanoma
MCF7 breast = tested on: MCF7 breast
MDA-MB-231 breast = tested on: MDA-MB-231 breast
MDA-MB-435 = tested on: MDA-MB-435
MDA-N = tested on: MDA-N
MOLT-4 leukemia = tested on: MOLT-4 leukemia
NCI-H226 lung = tested on: NCI-H226 lung
NCI-H23 lung = tested on: NCI-H23 lung
NCI-H460 lung = tested on: NCI-H460 lung
NCI-H522 lung = tested on: NCI-H522 lung
NCI/ADR-RES ovarian = tested on: NCI/ADR-RES ovarian
OVCAR-3 ovarian = tested on: OVCAR-3 ovarian
OVCAR-4 ovarian = tested on: OVCAR-4 ovarian
OVCAR-5 ovarian = tested on: OVCAR-5 ovarian
OVCAR-8 ovarian = tested on: OVCAR-8 ovarian
PC-3 prostate = tested on: PC-3 prostate
RXF 393 renal = tested on: RXF 393 renal
SF-268 CNS = tested on: SF-268 CNS
SF-295 CNS = tested on: SF-295 CNS
SF-539 CNS = tested on: SF-539 CNS
SK-MEL-2 melanoma = tested on: SK-MEL-2 melanoma
SK-MEL-28 melanoma = tested on: SK-MEL-28 melanoma
SK-MEL-5 melanoma = tested on: SK-MEL-5 melanoma
SK-OV-3 ovarian = tested on: SK-OV-3 ovarian
SN12C renal = tested on: SN12C renal
SNB-19 CNS = tested on: SNB-19 CNS
SNB-75 CNS = tested on: SNB-75 CNS
SR leukemia = tested on: SR leukemia
SW-620 colon = tested on: SW-620 colon
T-47D breast = tested on: T-47D breast
TK-10 renal = tested on: TK-10 renal
U251 CNS = tested on: U251 CNS
UACC-257 melanoma = tested on: UACC-257 melanoma
UACC-62 melanoma = tested on: UACC-62 melanoma
UO-31 renal = tested on: UO-31 renal
HCC-2998 colon = tested on: HCC-2998 colon
RPMI-8226 leukemia = tested on: RPMI-8226 leukemia

Structure (SMILES): Nc1ncnc2c1nc(Cl)n2C1OC(CO)C(O)C1O (stereo not given)
- TGI (786-0 renal): > 100 µM
- TGI (A498 renal): > 100 µM
- TGI (A549 NSCLC): > 100 µM
- TGI (ACHN renal): > 100 µM
- TGI (BT-549 breast): > 100 µM
- TGI (CAKI-1 renal): > 100 µM
- TGI (CCRF-CEM leukemia): > 25.5 µM
- TGI (COLO 205 colon): > 100 µM
- TGI (DU-145 prostate): > 93.3 µM
- TGI (EKVX NSCLC): > 71.1 µM
- TGI (HCT-116 colon): > 100 µM
- TGI (HCT-15 colon): > 100 µM
- TGI (HL-60(TB) leukemia): 3.97 µM
- TGI (HOP-62 NSCLC): > 100 µM
- TGI (HOP-92 NSCLC): > 66.2 µM
- TGI (HS 578T breast): > 100 µM
- TGI (HT29 colon): > 83 µM
- TGI (IGROV1 ovarian): > 100 µM
- TGI (K-562 leukemia): > 100 µM
- TGI (KM12 colon): > 100 µM
- TGI (LOX IMVI melanoma): > 100 µM
- TGI (M14 melanoma): > 100 µM
- TGI (MALME-3M melanoma): > 100 µM
- TGI (MCF7 breast): > 100 µM
- TGI (MDA-MB-231 breast): > 100 µM
- TGI (MDA-MB-435): > 100 µM
- TGI (MDA-N): > 100 µM
- TGI (MOLT-4 leukemia): > 100 µM
- TGI (NCI-H226 lung): > 85.2 µM
- TGI (NCI-H23 lung): > 100 µM
- TGI (NCI-H460 lung): > 100 µM
- TGI (NCI-H522 lung): > 95.3 µM
- TGI (NCI/ADR-RES ovarian): > 100 µM
- TGI (OVCAR-3 ovarian): > 100 µM
- TGI (OVCAR-4 ovarian): > 100 µM
- TGI (OVCAR-5 ovarian): 98.6 µM
- TGI (OVCAR-8 ovarian): > 100 µM
- TGI (PC-3 prostate): > 71.2 µM
- TGI (RXF 393 renal): 4.29 µM
- TGI (SF-268 CNS): > 100 µM
- TGI (SF-295 CNS): > 100 µM
- TGI (SF-539 CNS): > 94.7 µM
- TGI (SK-MEL-2 melanoma): > 100 µM
- TGI (SK-MEL-28 melanoma): > 100 µM
- TGI (SK-MEL-5 melanoma): > 42.2 µM
- TGI (SK-OV-3 ovarian): > 100 µM
- TGI (SN12C renal): > 100 µM
- TGI (SNB-19 CNS): > 100 µM
- TGI (SNB-75 CNS): > 56.6 µM
- TGI (SR leukemia): > 100 µM
- TGI (SW-620 colon): > 100 µM
- TGI (T-47D breast): 8.15 µM
- TGI (TK-10 renal): > 32.7 µM
- TGI (U251 CNS): > 100 µM
- TGI (UACC-257 melanoma): > 100 µM
- TGI (UACC-62 melanoma): > 100 µM
- TGI (UO-31 renal): > 100 µM

Structure (SMILES): c1ccc(-c2c(-c3[nH]c4ccccc4c3-c3ccccc3)[nH]c3ccccc23)cc1
- TGI (786-0 renal): 4.08 µM
- TGI (A549 NSCLC): 13.5 µM
- TGI (ACHN renal): 11.6 µM
- TGI (BT-549 breast): 15 µM
- TGI (CAKI-1 renal): 13.8 µM
- TGI (CCRF-CEM leukemia): 14 µM
- TGI (COLO 205 colon): 3.53 µM
- TGI (DU-145 prostate): 10.8 µM
- TGI (EKVX NSCLC): 14.1 µM
- TGI (HCC-2998 colon): 3.94 µM
- TGI (HCT-116 colon): 13.4 µM
- TGI (HCT-15 colon): 14.3 µM
- TGI (HL-60(TB) leukemia): 11.1 µM
- TGI (HOP-62 NSCLC): 5.03 µM
- TGI (HOP-92 NSCLC): 12.2 µM
- TGI (HS 578T breast): 51.6 µM
- TGI (HT29 colon): > 100 µM
- TGI (IGROV1 ovarian): 16.3 µM
- TGI (K-562 leukemia): 36.8 µM
- TGI (KM12 colon): 11.8 µM
- TGI (LOX IMVI melanoma): 4.06 µM
- TGI (M14 melanoma): 14.9 µM
- TGI (MALME-3M melanoma): 31.2 µM
- TGI (MCF7 breast): 11.9 µM
- TGI (MDA-MB-231 breast): 13.8 µM
- TGI (MDA-MB-435): 14.9 µM
- TGI (MDA-N): 7.46 µM
- TGI (MOLT-4 leukemia): 13.3 µM
- TGI (NCI-H226 lung): 25.6 µM
- TGI (NCI-H23 lung): 6.68 µM
- TGI (NCI-H460 lung): 8.57 µM
- TGI (NCI-H522 lung): 14.6 µM
- TGI (NCI/ADR-RES ovarian): 13.3 µM
- TGI (OVCAR-3 ovarian): 5.44 µM
- TGI (OVCAR-4 ovarian): 8.78 µM
- TGI (OVCAR-5 ovarian): 23.4 µM
- TGI (OVCAR-8 ovarian): 15.6 µM
- TGI (PC-3 prostate): 10.6 µM
- TGI (RPMI-8226 leukemia): 11.9 µM
- TGI (RXF 393 renal): 3.72 µM
- TGI (SF-268 CNS): 21.5 µM
- TGI (SF-295 CNS): 14.9 µM
- TGI (SF-539 CNS): 21.3 µM
- TGI (SK-MEL-2 melanoma): 22.1 µM
- TGI (SK-MEL-28 melanoma): 25.7 µM
- TGI (SK-MEL-5 melanoma): 14.8 µM
- TGI (SK-OV-3 ovarian): 21 µM
- TGI (SN12C renal): 3.8 µM
- TGI (SNB-19 CNS): 19.3 µM
- TGI (SNB-75 CNS): 14.9 µM
- TGI (SR leukemia): 7.84 µM
- TGI (SW-620 colon): 13.1 µM
- TGI (T-47D breast): 8.44 µM
- TGI (TK-10 renal): 22.4 µM
- TGI (U251 CNS): 14.8 µM
- TGI (UACC-257 melanoma): 25.1 µM
- TGI (UACC-62 melanoma): 21.6 µM
- TGI (UO-31 renal): 12.7 µM
